Test results taken from US9938273B2 (Plexxikon Inc., priority 2015, dated 2018).

Experiments:
c-KIT = target: T1, c-KIT (Homo sapiens, UniProt P10721); test: AlphaScreen kinase assay with recombinant enzyme, c-KIT; format: biochemical; conditions: 100ATP, 8pt, GMean
T1 construct: purchased Millipore 14-559K
Procedure, shortened: (§1)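 Read-out: AlphaScreen proximity signal at 580 nm (680 nm excitation), lost as peptide tyrosine phosphorylation falls. Substrate Biotin-GG(EEEEY)10EE at 30 nM; IC50 runs at 10 μM (FLT3 mutants) or 100 μM (c-KIT) final. Donor beads 20 min, then acceptor beads 60 min, room temperature.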

FLT3-ITD = target: T2, FLT3-ITD (Homo sapiens, UniProt P36888); test: AlphaScreen kinase assay with recombinant enzyme, FLT3-ITD; format: biochemical; conditions: 8pt; read-out: FLT3_ITD 8pt: IC50
T2 sequence (P36888 1-993): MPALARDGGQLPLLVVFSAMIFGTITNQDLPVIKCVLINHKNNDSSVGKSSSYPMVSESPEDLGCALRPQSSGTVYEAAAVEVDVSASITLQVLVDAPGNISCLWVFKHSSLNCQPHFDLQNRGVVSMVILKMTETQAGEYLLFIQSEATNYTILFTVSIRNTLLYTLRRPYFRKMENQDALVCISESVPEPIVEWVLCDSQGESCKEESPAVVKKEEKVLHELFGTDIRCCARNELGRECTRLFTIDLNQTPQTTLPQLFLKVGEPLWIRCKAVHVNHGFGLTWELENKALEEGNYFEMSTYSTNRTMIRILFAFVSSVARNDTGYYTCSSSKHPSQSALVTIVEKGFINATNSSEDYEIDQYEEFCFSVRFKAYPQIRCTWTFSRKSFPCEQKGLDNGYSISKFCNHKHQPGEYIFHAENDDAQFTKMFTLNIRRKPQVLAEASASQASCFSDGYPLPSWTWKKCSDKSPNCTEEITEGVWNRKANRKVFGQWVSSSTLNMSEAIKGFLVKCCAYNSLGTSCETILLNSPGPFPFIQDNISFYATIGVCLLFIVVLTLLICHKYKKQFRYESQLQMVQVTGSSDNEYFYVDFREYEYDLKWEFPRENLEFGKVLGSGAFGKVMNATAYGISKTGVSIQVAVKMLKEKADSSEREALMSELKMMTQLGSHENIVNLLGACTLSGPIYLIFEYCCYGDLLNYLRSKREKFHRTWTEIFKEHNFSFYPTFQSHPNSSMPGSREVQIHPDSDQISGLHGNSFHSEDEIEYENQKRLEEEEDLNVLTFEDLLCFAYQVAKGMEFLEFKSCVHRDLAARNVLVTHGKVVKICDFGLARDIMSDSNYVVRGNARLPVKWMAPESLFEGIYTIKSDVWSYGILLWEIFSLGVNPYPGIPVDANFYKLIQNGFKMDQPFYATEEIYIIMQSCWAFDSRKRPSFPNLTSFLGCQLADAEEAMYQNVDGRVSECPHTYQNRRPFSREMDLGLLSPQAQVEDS
Procedure, shortened: as §1

T1 sequence (P10721 26-976): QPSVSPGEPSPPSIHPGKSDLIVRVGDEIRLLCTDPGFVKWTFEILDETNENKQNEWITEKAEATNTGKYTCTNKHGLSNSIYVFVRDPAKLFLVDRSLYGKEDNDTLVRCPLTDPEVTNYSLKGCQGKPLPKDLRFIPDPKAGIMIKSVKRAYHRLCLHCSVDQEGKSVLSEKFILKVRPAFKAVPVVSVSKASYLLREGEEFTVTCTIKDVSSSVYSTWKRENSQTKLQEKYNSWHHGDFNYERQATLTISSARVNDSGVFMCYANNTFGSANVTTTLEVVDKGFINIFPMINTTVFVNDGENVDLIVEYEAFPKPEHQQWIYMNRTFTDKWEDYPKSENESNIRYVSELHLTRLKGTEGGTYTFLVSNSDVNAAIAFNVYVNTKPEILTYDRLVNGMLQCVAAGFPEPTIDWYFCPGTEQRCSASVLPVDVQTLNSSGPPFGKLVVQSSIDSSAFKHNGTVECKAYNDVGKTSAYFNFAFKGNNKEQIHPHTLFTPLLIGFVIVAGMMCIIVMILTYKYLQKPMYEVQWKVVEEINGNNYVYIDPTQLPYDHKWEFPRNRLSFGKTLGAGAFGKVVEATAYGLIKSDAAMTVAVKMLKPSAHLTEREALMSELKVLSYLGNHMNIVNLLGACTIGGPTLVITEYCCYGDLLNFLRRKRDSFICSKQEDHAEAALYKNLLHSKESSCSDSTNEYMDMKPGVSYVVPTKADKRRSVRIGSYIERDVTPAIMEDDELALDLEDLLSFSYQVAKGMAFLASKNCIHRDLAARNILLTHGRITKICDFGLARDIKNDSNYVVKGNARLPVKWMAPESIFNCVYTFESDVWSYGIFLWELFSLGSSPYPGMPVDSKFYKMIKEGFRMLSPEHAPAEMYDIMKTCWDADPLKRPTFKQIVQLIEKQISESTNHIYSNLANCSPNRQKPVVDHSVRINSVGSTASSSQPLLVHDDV

IC50 (c-KIT) [µM] | IC50 (FLT3-ITD) [µM] | Structure (SMILES)
0.0001 to 10 | 0.0001 to 10 | CNC(=O)Nc1ccc(-c2cnc3[nH]c(-c4ccccc4)cc3c2)cc1 [Compound P-0006, 1-methyl-3-[4-(2-phenyl-1H-pyrrolo[2,3-b]pyridin-5-yl)phenyl]urea]
0.0001 to 10 | 0.0001 to 10 | NC1CCN(C(=O)c2n[nH]c3ccc(-c4cnc5[nH]c(-c6ccccc6)cc5c4)cc23)CC1 [Compound P-0012, (4-amino-1-piperidyl)-[5-(2-phenyl-1H-pyrrolo[2,3-b]pyridin-5-yl)-1H-indazol-3-yl]methanone]
0.0001 to 10 | 0.0001 to 10 | NC1CCN(C(=O)c2cccc(-c3cnc4[nH]c(-c5ccccc5)cc4c3)n2)CC1 [Compound P-0013, (4-amino-1-piperidyl)-[6-(2-phenyl-1H-pyrrolo[2,3-b]pyridin-5-yl)-2-pyridyl]methanone]
0.0001 to 10 | 0.0001 to 10 | N[C@H]1CCN(C(=O)c2cccc(-c3cnc4[nH]c(-c5ccccc5)cc4c3)n2)C1 [Compound P-0015, [(3S)-3-aminopyrrolidin-1-yl]-[6-(2-phenyl-1H-pyrrolo[2,3-b]pyridin-5-yl)-2-pyridyl]methanone]
0.0001 to 10 | 0.0001 to 10 | N[C@H]1CCN(C(=O)c2n[nH]c3ccc(-c4cnc5[nH]c(-c6ccccc6)cc5c4)cc23)C1 [Compound P-0016, [(3S)-3-aminopyrrolidin-1-yl]-[5-(2-phenyl-1H-pyrrolo[2,3-b]pyridin-5-yl)-1H-indazol-3-yl]methanone]
10 to 50 | 0.0001 to 10 | CC(C)(C)OC(=O)NC1CCN(C(=O)c2cccc(-c3cnc4[nH]c(-c5ccccc5)cc4c3)n2)CC1 [Compound P-0017, tert-butyl N-[1-[6-(2-phenyl-1H-pyrrolo[2,3-b]pyridin-5-yl)pyridine-2-carbonyl]-4-piperidyl]carbamate]
0.0001 to 10 | 0.0001 to 10 | NC1CCC(NC(=O)c2cccc(-c3cnc4[nH]c(-c5ccccc5)cc4c3)n2)CC1 (centres unmarked) [Compound P-0018, N-(4-aminocyclohexyl)-6-(2-phenyl-1H-pyrrolo[2,3-b]pyridin-5-yl)pyridine-2-carboxamide]
0.0001 to 10 | 0.0001 to 10 | CC(=O)NC1CCN(C(=O)c2cccc(-c3cnc4[nH]c(-c5ccccc5)cc4c3)n2)CC1 [Compound P-0020, N-[1-[6-(2-phenyl-1H-pyrrolo[2,3-b]pyridin-5-yl)pyridine-2-carbonyl]-4-piperidyl]acetamide]
0.0001 to 10 | 0.0001 to 10 | CN1CCC(NC(=O)c2n[nH]c3ccc(-c4cnc5[nH]c(-c6ccccc6)cc5c4)cc23)CC1 [Compound P-0022, N-(1-methyl-4-piperidyl)-5-(2-phenyl-1H-pyrrolo[2,3-b]pyridin-5-yl)-1H-indazole-3-carboxamide]
50 to 100 | 0.0001 to 10 | O=C(c1cccc(-c2cnc3[nH]c(-c4ccccc4)cc3c2)n1)N1CCC(CO)CC1 [Compound P-0023, [4-(hydroxymethyl)-1-piperidyl]-[6-(2-phenyl-1H-pyrrolo[2,3-b]pyridin-5-yl)-2-pyridyl]methanone]
0.0001 to 10 | 0.0001 to 10 | CCOC(=O)C1CCN(C(=O)c2cccc(-c3cnc4[nH]c(-c5ccccc5)cc4c3)n2)CC1 [Compound P-0025, ethyl 1-[6-(2-phenyl-1H-pyrrolo[2,3-b]pyridin-5-yl)pyridine-2-carbonyl]piperidine-4-carboxylate]
0.0001 to 10 | 0.0001 to 10 | NCC1CCN(C(=O)c2cccc(-c3cnc4[nH]c(-c5ccccc5)cc4c3)n2)CC1 [Compound P-0026, [4-(aminomethyl)-1-piperidyl]-[6-(2-phenyl-1H-pyrrolo[2,3-b]pyridin-5-yl)-2-pyridyl]methanone]
50 to 100 | 10 to 50 | CC1CCN(C(=O)c2n[nH]c3ccc(-c4cnc5[nH]c(-c6ccccc6)cc5c4)cc23)CC1 [Compound P-0027, (4-methyl-1-piperidyl)-[5-(2-phenyl-1H-pyrrolo[2,3-b]pyridin-5-yl)-1H-indazol-3-yl]methanone]
